Molecular target: Diamine acetyltransferase 1 (Mus musculus) (UniProt P48026)
Assay: Competitive inhibition at mouse recombinant SSAT expressed in Escherichia coli strain BL21(DE3)

Chain of Diamine acetyltransferase 1 (Mus musculus) (P48026 whole entry, looked up): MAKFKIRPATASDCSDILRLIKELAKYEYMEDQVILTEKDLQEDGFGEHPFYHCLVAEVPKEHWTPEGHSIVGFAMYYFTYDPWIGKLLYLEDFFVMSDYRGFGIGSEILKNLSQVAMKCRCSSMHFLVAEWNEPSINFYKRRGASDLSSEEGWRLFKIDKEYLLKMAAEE

CC(CCN)NCCCCN (stereo unspecified)
Ki: 52 µM

From BindingDB's records for doi:10.1021/jm200293r (University of Eastern Finland, 2011)
